According to patent publication US20220105061A1, “COMPOSITIONS AND METHODS FOR TREATING RESPIRATORY INSUFFICIENCY” (The Regents of the University of California, priority 2019, published 2022):
“Also recorded” adds a separate entry of the source.

System: Serpinh1 Prx1-cre conditional KO mice
Assay: Prenatal 4-PBA treatment of pregnant females in the Serpinh1 Prx1-cre conditional KO (Hsp47-Prx1) lethal osteogenesis imperfecta mouse model
Format: in vivo
Settings: for perinatal lethality due to respiratory insufficiency: Hsp47-Prx1 model
Source text: Mutations in SERPINH1 (HSP47) cause osteogenesis imperfecta (OI). Patients with mutations in these genes are severely affected by bone fragility and pulmonary dysfunction. Serpinh1 Prx1-cre conditional KO mice were generated. These animals die immediately after birth due to respiratory insufficiency. The Prx1 gene is expressed in lungs' and limbs' mesenchymal lineages, causing phenotypes in both the pulmonary and skeletal system. Right after birth, all affected animals become cyanotic and die.
Animals were treated with 4-PBA. At least 12 pregnant females (SerpinH1−/− crossed with males Serpinh1+/−Prx1 carriers), who were expected to give birth to 25% affected pups (Serpinh1−/−Prx1 positive) were treated with 1 gr/Kg/day of 4-PBA in drinking water since the gestational age of E14 until birth.
Respiratory function was analyzed in treated vs. control animals by cyanotic observations, X-rays, lung floatability test, whole body oxymetry and histology. Multiple dosages were tested: 1, 2 and 5 gr/Kg/day, 1 gr/Kg/day being the minimum dosage to obtain the effect in 100% of individuals. 5 gr/Kg/day was discarded as 2 of 12 treated pups in two independent litters died without presenting the phenotype and showing hematomas. Other pregnancy stages were also tested starting the treatment from E10 to E17.
4-PBA treatment rescue perinatal lethality due to respiratory insufficiency in Hsp47-Prx1 model. A. X-Rays show a dark spot corresponding with air in the lungs in healthy animals (red arrows). […] B. Histological architecture is collapse in mutants (B′) but rescued in 4-PBA treated animals (B″). C. Mutants show cyanotic aspect at birth (C′). This is also rescued in 4-PBA treated animals (C″). D. Oxygen levels are rescued in treated mutants as observed by oxymeter measures right after birth.

In the case of `O=C(O)CCCc1ccccc1` [4-PBA, 4-phenylbutyric acid], the “individuals in which the effect was obtained” value (1 gr/Kg/day) was 100%, the “survival of pups with the affected genotype born from treated mothers” value (1 gr/Kg/day in drinking water to pregnant females, E14 until birth, untreated affected pups die immediately after birth) was “around 24 hours” and the “treated pups that died without presenting the phenotype and showing hematomas” value (5 gr/Kg/day, two independent litters, dosage discarded) was 2 of 12. The “perinatal lethality due to respiratory insufficiency” value (prenatal treatment) was “rescue”, the “perinatal lethality due to respiratory insufficiency” value (prenatal treatment, listed as 4-phenylbutyric) was “rescues” and the lung histological architecture (collapsed in mutants, FIG. 1B) was “rescued”. For the same compound, the “minimum dosage to obtain the effect in 100% of individuals” value (dosages tested: 1, 2 and 5 gr/Kg/day) was 1 gr/Kg/day, the embryo viability (mouse, in vivo) was “possible decreased embryo viability” and the “unproductive pregnancies of 4 plugged females” value (mouse, in vivo) was “two”. The “cyanosis of treated affected animals” value (prenatal treatment, cyanotic observations at birth) was “did not become cyanotic; also recorded: rescued”, the “oxygen levels (whole body oxymetry)” value (prenatal treatment, oxymeter measures right after birth) was “normal levels of oxygen; also recorded: rescued” and the “air in the lungs on X-rays” value (treated mutants, FIG. 1A) was “show air in the lungs”. For the same compound, the lung function improvement (treatments performed between E13 to E17) was “observed similarly”.
